Patent publication US10744125B2, “Adenosine A3 receptor modulators” (Palobiofarma, S.L., priority 2017, dated 2020)

Assays:
[1] = target: human A3 receptors (Homo sapiens (Human), UniProt P0DMS8); assay: A3 adenosine receptor competition radioligand binding assay; settings: membranes from human A3 receptors transfected to CHO cells, [3H]-NECA
Experimental: (§1) Human membranes for recombinant adenosine receptors were purchased from Receptor Biology, Inc. (USA).
A3 Adenosine Receptor Competition Radioligand Binding Assay
Competitive assays were carried out by incubation of membranes from human A3 receptors transfected to CHO cells, [^3H]-NECA, buffer (20 mM HEPES (pH 7.4), 100 mM NaCl, 10 mM MgCl2, 2 units/ml adenosine deaminase), and unlabelled ligand in a total volume of 0.2 ml for 60 min at 25° C. R-PIA was used to determine nonspecific binding. It was filtered over Schleicher & Schuell GF/52 (presoaked with 0.5% polyethyleneimine) in a Brandel cell harvester. The unbound radioligand was removed with 3×250 μl of 20 mM HEPES (pH 7.4), 100 mM NaCl, 10 mM MgCl2.

[2] = target: human A2A receptors (Homo sapiens (Human), UniProt P29274); assay: A2A adenosine receptor competition radioligand binding assay; settings: membranes from human A2A receptors transfected to HeLa cells, [3H]-ZM241385
Chain of human A2A receptors (P29274 whole entry): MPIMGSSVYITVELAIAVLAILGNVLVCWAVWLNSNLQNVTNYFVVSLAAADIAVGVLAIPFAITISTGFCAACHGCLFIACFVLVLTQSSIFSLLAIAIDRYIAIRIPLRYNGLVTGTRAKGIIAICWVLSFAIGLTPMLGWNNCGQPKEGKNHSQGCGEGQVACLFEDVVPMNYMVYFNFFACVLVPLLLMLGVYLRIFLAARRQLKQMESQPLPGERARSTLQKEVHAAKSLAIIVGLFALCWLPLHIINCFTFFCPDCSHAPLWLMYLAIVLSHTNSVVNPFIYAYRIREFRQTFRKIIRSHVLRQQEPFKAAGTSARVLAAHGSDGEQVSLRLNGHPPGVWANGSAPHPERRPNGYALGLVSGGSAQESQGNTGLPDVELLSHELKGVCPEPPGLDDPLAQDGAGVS
Experimental: as §1
A2A Adenosine Receptor Competition Radioligand Binding Assay
Competitive assays were carried out by incubation of membranes from human A2A receptors transfected to HeLa cells, [^3H]-ZM241385, buffer (Tris-HCl 50 mM (pH=7.4), 10 mM MgCl2, EDTA 1 mM and 2 units/ml adenosine deaminase), and unlabelled ligand in a total volume of 0.2 ml for 60 min at 25° C. NECA was used to determine nonspecific binding. It was filtered over Schleicher & Schuell GF/52 (presoaked with 0.5% polyethyleneimine) in a Brandel cell harvester. The unbound radioligand was removed with 3×250 μl of 20 mM Tris-HCl 50 mM (pH=7.4), 10 mM MgCl2, EDTA 1 mM.

[3] = target: adenosine A2B receptor (Homo sapiens (Human), UniProt P29275); assay: A2B adenosine receptor competition radioligand binding assay; settings: human recombinant source (HEK-293 cells), [3H]DPCPX
Chain of adenosine A2B receptor (P29275 whole entry): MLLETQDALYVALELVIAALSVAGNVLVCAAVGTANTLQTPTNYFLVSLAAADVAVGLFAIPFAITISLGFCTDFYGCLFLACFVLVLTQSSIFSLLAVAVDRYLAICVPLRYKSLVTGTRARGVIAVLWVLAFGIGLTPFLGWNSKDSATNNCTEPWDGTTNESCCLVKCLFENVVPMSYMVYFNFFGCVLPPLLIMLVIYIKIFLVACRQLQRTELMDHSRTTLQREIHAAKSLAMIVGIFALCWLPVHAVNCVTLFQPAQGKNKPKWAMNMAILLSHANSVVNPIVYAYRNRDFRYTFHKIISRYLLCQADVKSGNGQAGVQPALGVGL
Experimental: A2B Adenosine Receptor Competition Radioligand Binding Assay
The binding assay for adenosine A2B receptor subtype was carried out on human recombinant source (HEK-293 cells) and [^3H]DPCPX as radioligand, according to assay disclosed by Fredholm et al. (International Union of Pharmacology. XXV. Nomenclature and classification of adenosine receptors, Pharmacol Rev. 2001 December; 53(4):527-52).

[4] = target: hA1 receptors (Homo sapiens (Human), UniProt P30542); assay: Adenosine A1 receptor subtype competition radioligand binding assay; settings: hA1 receptors transfected to CHO cells, [3H]DPCPX
Chain of hA1 receptors (P30542 whole entry): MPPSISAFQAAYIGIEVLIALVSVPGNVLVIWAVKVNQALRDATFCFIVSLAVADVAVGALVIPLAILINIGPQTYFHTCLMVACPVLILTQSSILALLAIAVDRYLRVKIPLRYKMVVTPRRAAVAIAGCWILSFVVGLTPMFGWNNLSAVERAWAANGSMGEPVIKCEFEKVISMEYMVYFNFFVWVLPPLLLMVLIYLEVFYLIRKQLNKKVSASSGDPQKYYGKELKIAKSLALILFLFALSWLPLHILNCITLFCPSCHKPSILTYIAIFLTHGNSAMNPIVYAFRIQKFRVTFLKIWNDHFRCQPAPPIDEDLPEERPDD
Experimental: as §1
Adenosine A1 Receptor Subtype Competition Radioligand Binding Assay
Competition assays were carried out by incubation of human recombinant membranes of adenosine receptors (Receptor Biology, Inc.) from hA1 receptors transfected to CHO cells, [^3H] DPCPX as radioligand, buffer (HEPES 20 mM (pH=7.4), 10 mM MgCl2, 100 mM NaCl, 2 U/mL of deaminase adenosine and non-labelled ligand in a total volume of 0.2 mL for 90 min at 25° C. R-PIA was used to determinate non-specific binding. Filter over Schleicher & Schuell GF/52 (pre-soaked 0.5% polyethylenimine) in a Brandel cell harvester. Unbound radioligand was removed with HEPES 30 mM (3×250 μl), NaCl (100 mM) and MgCl2 (10 mM).

[5] = tested on: rheumatoid arthritis (RA) patients; settings: oral administration twice daily for 12 weeks; cited from earlier work
[6] = tested on: experimental autoimmune uveitis; settings: experimental autoimmune uveitis model; cited from earlier work
[7] = target: A3AR receptor (Homo sapiens (Human), UniProt P0DMS8); settings: read-out: affinity on the A3AR receptor (IC50); cited from earlier work
Chain of A3AR receptor (P0DMS8 whole entry): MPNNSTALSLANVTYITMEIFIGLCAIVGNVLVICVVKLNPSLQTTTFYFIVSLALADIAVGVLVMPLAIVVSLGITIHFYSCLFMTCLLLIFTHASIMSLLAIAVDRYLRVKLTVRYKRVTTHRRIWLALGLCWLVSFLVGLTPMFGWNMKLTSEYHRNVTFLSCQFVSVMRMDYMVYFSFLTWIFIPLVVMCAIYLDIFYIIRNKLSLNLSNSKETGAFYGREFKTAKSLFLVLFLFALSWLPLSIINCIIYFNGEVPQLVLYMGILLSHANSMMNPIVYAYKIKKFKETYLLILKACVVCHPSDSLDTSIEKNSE

Chain of human A3 receptors (P0DMS8 whole entry): as above

N#Cc1sc(NC(=O)c2ccc(N3CCC(C(=O)O)CC3)nc2)nc1-c1ccccc1 [Example 1, 1-(5-(5-cyano-4-phenylthiazol-2-ylcarbamoyl)pyridin-2-yl) piperidine-4-carboxylic Acid]
Ki [1]: 103 nM
Ki [2]: > 1000 nM
Ki [3]: > 500 nM
Ki [4]: > 500 nM

COc1cccc(-c2nc(NC(=O)c3ccc(N4CCC(C(=O)O)CC4)nc3)sc2C#N)c1 [Example 3, 1-(5-((5-cyano-4-(3-methoxyphenyl)thiazol-2-yl)carbamoyl)pyridin-2-yl) piperidine-4-carboxylic Acid]
Ki [1]: 65.5 nM
Ki [2]: > 1000 nM
Ki [3]: > 1000 nM
Ki [4]: > 1000 nM

N#Cc1sc(NC(=O)c2ccc(N3CCC(C(=O)O)CC3)nc2)nc1-c1ccccc1F [Example 5, 1-(5-((5-cyano-4-(2-fluorophenyl)thiazol-2-yl)carbamoyl)pyridin-2-yl) piperidine-4-carboxylic Acid]
Ki [1]: 26.3 nM
Ki [2]: > 1000 nM
Ki [3]: > 500 nM
Ki [4]: > 500 nM

N#Cc1sc(NC(=O)c2ccc(N3CCC(C(=O)O)CC3)nc2)nc1-c1cccc(F)c1 [Example 6, 1-(5-((5-cyano-4-(3-fluorophenyl)thiazol-2-yl)carbamoyl)pyridin-2-yl) piperidine-4-carboxylic Acid]
Ki [1]: 50.3 nM
Ki [2]: > 1000 nM
Ki [3]: > 1000 nM
Ki [4]: > 1000 nM

N#Cc1sc(NC(=O)c2ccc(N3CCC(C(=O)O)CC3)nc2)nc1-c1cccs1 [Example 14, 1-(5-(5-cyano-4-(thiophen-2-yl)thiazol-2-ylcarbamoyl)pyridin-2-yl) piperidine-4-carboxylic Acid]
Ki [1]: 29.2 nM
Ki [2]: > 500 nM
Ki [3]: > 1000 nM
Ki [4]: > 500 nM

CNC(=O)[C@H]1O[C@@H](n2cnc3c(NCc4cccc(I)c4)ncnc32)[C@H](O)[C@@H]1O [IB-MECA, 1-deoxy-1-[6-[((3-iodophenyl)methyl)amino]-9H-purin-9-yl]-N-methyl-β-D-ribofuranuronamide]
effect on disease signs and symptoms [5]: able to mediate an improvement of disease signs and symptoms
safety and tolerability [5]: safe, well tolerated
effect on manifestations of uveitis [6]: inhibited the clinical and pathological manifestations of uveitis

COc1cc(Nc2ncc(F)c(Nc3ccc4c(n3)N(COP(=O)(O)O)C(=O)C(C)(C)O4)n2)cc(OC)c1OC [fostamatinib]
IC50 [7]: 81 nM
